In ChEMBL document CHEMBL3397034, “Environmentally benign synthesis, molecular properties prediction and anti-inflammatory activity of novel isoxazolo[5,4-d]isoxazol-3-yl-aryl-methanones via vinylogous Henry nitroaldol adducts as synthons” (2015):

Assays:
Type in all cases: functional
Rattus norvegicus [1] = experiment: Anti-inflammatory activity in Wistar rat assessed as reduction in carrageenan induced paw edema by measuring paw volume as ml of Hg at 100 mg/kg, po administered 30 mins before carrageenan challenge measured 1 hr post carrageenan challenge (reference value: 0.36 +/- 0.3 ml of Hg)
Rattus norvegicus [2] = experiment: Anti-inflammatory activity in Wistar rat assessed as reduction in carrageenan induced paw edema by measuring paw volume as ml of Hg at 100 mg/kg, po administered 30 mins before carrageenan challenge measured 2 hrs post carrageenan challenge (reference value: 0.36 +/- 0.3 ml of Hg)
Rattus norvegicus [3] = experiment: Anti-inflammatory activity in Wistar rat assessed as reduction in carrageenan induced paw edema by measuring paw volume as ml of Hg at 100 mg/kg, po administered 30 mins before carrageenan challenge measured 4 hrs post carrageenan challenge (reference value: 0.36 +/- 0.3 ml of Hg)
Rattus norvegicus [4] = experiment: Anti-inflammatory activity in Wistar rat assessed as reduction in carrageenan induced paw edema by measuring paw volume as ml of Hg at 100 mg/kg, po administered 30 mins before carrageenan challenge measured 6 hrs post carrageenan challenge (reference value: 0.36 +/- 0.3 ml of Hg)

SMILES	Activity (Rattus norvegicus [1]) [mL]	Activity (Rattus norvegicus [2]) [mL]	Activity (Rattus norvegicus [3]) [mL]	Activity (Rattus norvegicus [4]) [mL]
Cc1noc2c(C(=O)c3ccccc3)noc12	0.8	0.86	0.82	0.63
Cc1noc2c(C(=O)c3ccccc3[N+](=O)[O-])noc12	0.75	0.83	0.81	0.63
Cc1noc2c(C(=O)c3ccccc3O)noc12	0.82	0.93	0.8	0.61
COc1ccc(C(=O)c2noc3c(C)noc23)cc1	0.78	0.7	0.83	0.62
Cc1noc2c(C(=O)c3ccccc3Cl)noc12	0.51	0.68	0.51	0.5
Cc1noc2c(C(=O)c3ccc(N(C)C)cc3)noc12	0.78	0.83	0.63	0.55
Cc1noc2c(C(=O)c3ccccc3Br)noc12	0.5	0.68	0.65	0.51
Cc1noc2c(C(=O)c3ccc(Cl)cc3)noc12	0.53	0.65	0.67	0.41
Cc1noc2c(C(=O)c3ccc(Br)cc3)noc12	0.52	0.69	0.54	0.32
